Assay results as given in patent US20160002297A1, “THERAPEUTIC AGENTS” (NATIONAL UNIVERSITY OF SINGAPORE, priority 2013, published 2016).
Positions of bridges follow the written chain, without caps; N, C: chain ends. Residues, ends and D or L forms follow the SMILES beside them.

How the values were obtained:
[1] = test system: 4T1 breast carcinoma; experiment: Subcutaneous 4T1 breast carcinoma growth in mice, intravenous treatment; assay type: in vivo, mouse
Protocol: FIG. 13 cRKD peptide inhibits subcutaneous 4T1 breast carcinoma growth in mice when delivered intravenously. (a) 4T1 tumor growth curve in mice. X-axis represents the days after inoculation of 1 million tumor cells. Groups consisted of mice receiving 250 μg cRAA peptide or cRKD peptide through tail vein injection every other day from day 0 (date of inoculation) to 22. N=10. (b) Tumor weight at the end of the experiment (day 22). (c) Dissected tumors at the end of experiment. […] Paraffin sections of 4T1 tumors were probed for microvascular density (MVD), tumor cell proliferation and apoptosis through IF using anti-CD31, anti-PCNA and TUNEL staining respectively. (f) Quantification of MVD, cell proliferation and apoptosis. Plots represent the mean of 3 fields per section, 3 sections per tumor and 2 tumors per group. **P<0.01. Error bars denote SEM. […] Double immunofluorescence staining using anti-CD31 (red) and TUNEL (green) is shown. Nuclei were counter stained by DAPI (blue). Representative photos are shown. Apoptotic EC is indicated by white arrow.

[2] = molecular target: GRP78 (Homo sapiens, UniProt P11021); experiment: ELISA solid phase-binding assay for binding affinity to GRP78; settings: purified recombinant GRP78
Protocol: ELISA solid phase-binding assay was used to determine the dissociation constant between ISM or cyclic peptide and GRP78 as previously described with minor modification (Nishiuchi, Takagi et al. 2006). 96-well plates were coated with 50 μl of 10 nM cyclic peptide at 4° C. overnight. Nonspecific binding sites were blocked with 1% BSA for 2 h at room temperature. Increasing concentrations of GRP78 were incubated with immobilized cyclic peptide. After washing, the amount of bound GRP78 was quantified by ELISA. The value for Kd was calculated by GraphPad Prism software.

[3] = test system: B16F10 melanoma; experiment: Mouse tumorigenesis: subcutaneous B16F10 melanoma, intravenous treatment from day 0; assay type: in vivo
Protocol: FIG. 4 Recombinant ISM and ISM derived cRKD peptide inhibit B16F10 tumour growth in vivo. A. Tumour growth curve in mice. X-axis represents the days after 5×10^5 tumour cell inoculation. Groups consisted of control mice receiving no treatment, recombinant ISM, cRKD peptide and its control-cyclic RAA peptide, given in six doses of 250 μg/mouse through tail vein injection on days 0, 2, 4, 6, 8, and 10 (5 mice in each group, each mice with one tumour). **: p<0.01,*: p<0.05, n=5. B. Tumour weight at the end of the experiment (14 days after tumour cell inoculation). C. Recombinant ISM and cRKD peptide inhibits B16F10 tumour growth. […] Paraffin sections of tumors from mice groups treated by control, ISM, cRAA and cRKD peptides were probed for microvessel density, tumor cell proliferation and apoptosis through immunofluoresence staining using anti-CD31 (A), anti-PCNA (B) and TUNEL staining (C) respectively. Representative photos are shown. (D) Quantification of microvessel density. Microvessel density is the number of microvessels per microscopic field. (E) Quantification of cell proliferation in tumor sample. Cell proliferation is presented as the percentage of PCNA positive cells out of the total number of cells (DAPI positive cells) in the microscopic field. (F) Quantification of apoptosis in tumor. Apoptosis is quantified as the percentage of TUNEL positive cells out of the total number of cells (DAPI positive cells) in the microscopic field. Plots represent the mean of 3 fields per section, 3 sections per tumor and 2 tumors per group (±SEM). ** P≦0.01, * P≦0.05; Adult 8-week-old female C57BL/6J mice were used in this study. Animal care and experimentation was carried out under the institutional guidelines issued by the local institutional animal care and use committee (IACUC; protocol 066/12). 5×10^5 B16F10 cells in 0.1 ml PBS were injected subcutaneously into the dorsal left flank of the mouse. Twenty mice were assigned into 4 different groups consisted of control mice receiving no treatment, recombinant ISM, cyclic RKD peptide and its peptide control-cyclic RAA peptide, given in six doses of 250 μg through tail vein injection on days 0, 2, 4, 6, 8, and 10 (5 mice in each group, each mice with one tumor). Health status of the mice was monitored over two weeks and visible tumor size were measured daily by calipers after 8 days until the end point (day 14). Tumor volume was calculated using the following formula: 0.52×length×(width)^2 mm^3, where the largest dimension of the tumor is considered as the length and the width is the perpendicular dimension. On day 14, mice were sacrificed, and their dorsal flank was opened and photographed to exam the vascularization. Then tumors were excised and weighed followed by either fixing in 4% paraformaldehyde for sectioning or snap-freezing in liquid nitrogen for further analysis. Paraffin-embedded tissue sections of 5 μm were deparaffinized by heating at 60° C. for 7 minutes before deparaffinizing in histoclear followed by the rehydration in graded series of alcohol (100%, 90%, 80%, and 70% ethanol in ddH2O) and finally in PBS for 5 minutes. Antigen retrieval was done in a bench-top 2100-Retriever according to the protocol of the manufacturer (Electron Microscopy Sciences, Hatfield, Pa.). The sections were blocked with 3% bovine serum albumin (BSA) in a humidified chamber for 1 hour at room temperature followed by overnight incubation with the anti-CD31 (Santa Cruz Biotechnology, Santa Cruz, Calif.), anti-PCNA antibody (Santa Cruz Biotechnology), anti-GRP78 antibody (Santa Cruz Biotechnology), or anti-His tag antibody (Santa Cruz Biotechnology) at 4° C. The following day, unbound antibody was washed with 1×PBS containing 0.1% Tween-20 (1×PBST) and incubated with the corresponding Alexafluor 568 secondary antibodies (Life Technologies) for 1.5 hours at 37° C. Sections were rinsed again and incubated for 10 minutes with DAPI at 1 μg/mL to visualize the DNA in the cell nucleus. […]

[4] = test system: endothelial cells (ECs); experiment: Apoptosis assay (Cell Death ELISA) in cultured ECs; assay type: cell-based; settings: cultured ECs in the presence of VEGF, 24 h
Protocol: ECs (2×10^4 cells per well) in 96-well plate were starved in 2% FBS basal CSC medium for 3 h. Cells were then incubated with peptides of various concentrations and 15 ng/ml VEGF for 24 h. Apoptosis was detected by measuring cytosolic oligonucleosome-bound DNA using a Cell Death ELISA kit purchased from Roche (USA). Plots represented the mean of 3 wells of apoptotic cells in 96 well plate (±SEM).

Kd [2]: 9.6 nM
Compound: N=C(N)NCCC[C@@H]1NC(=O)[C@@H](N)CSSC[C@@H](C(=O)O)NC(=O)[C@H](CC(=O)O)NC(=O)[C@H](CCCCN)NC1=O [cRKD, Cyclic CRKDC peptide] (H-CRKDC-OH; disulfide 1-5; N-terminus and C-terminus assumed)
4T1 tumor growth ([1]; 250 μg tail vein every other day, day 0 to 22, vs cRAA): suppressed subcutaneous 4T1 breast cancer growth
apoptosis of cancer cells and cancer ECs in 4T1 breast carcinoma ([1]; CD31/TUNEL double staining): induces apoptosis of both cancer cells and cancer ECs
tumor angiogenesis, proliferation and apoptosis in 4T1 tumor ([1]; anti-CD31, anti-PCNA and TUNEL staining): suppressed tumor angiogenesis, proliferation and induced apoptosis
vascularization of 4T1 tumors ([1]; compared to control): reduced vascularization
suppression of breast cancer growth ([1]; intravenous injection): 75%
tumor growth ([3]; 250 μg/mouse intravenous every 2 days, days 0-10, subcutaneous B16F10): significantly suppressed tumor growth
vascularization (blood vessels supplying the tumor) ([3]; 250 μg/mouse intravenous, day 14): obviously reduced
tumor angiogenesis, tumor cell proliferation and tumor cell apoptosis ([3]; immunofluorescence of tumor sections): suppress tumor angiogenesis, tumor cell proliferation and induce tumor cell apoptosis
suppression of subcutaneous mouse melanoma growth ([3]; intravenous injection): 75%
increase of apoptosis in the tumor tissue (TUNEL) ([3]; quantitation of tumor sections): more than 3 fold
suppression of tumor angiogenesis (tumor vessel density) ([3]; quantitation of tumor sections): more than 3 fold
suppression of tumor cell proliferation (PCNA) ([3]; quantitation of tumor sections): more than 2 fold
apoptosis of tumor cells and tumor ECs (CD31/TUNEL double staining) ([3]; tumor sections, compared to controls): both tumor cells as well as tumor ECs became apoptotic
tumor vessel density (anti-CD31 immunofluorescence) ([3]; tumor tissue sections): obvious reduction of tumor vessel density
induction of EC apoptosis (pro-apoptotic activity) [4]: potently induced apoptosis
induction of EC apoptosis (pro-apoptotic activity) ([4]; listed as RKD): equally potent comparing to “RKLYD”
